Square brackets hold non-standard residues; d marks the D form. Ends that are not written are not given here. Peptide text beside a SMILES is read from it. AEEA = NCCOCCOCC(=O)O
Assays:
[1] = tested on: human corneal epithelial cell (HCEC); experiment: HCEC chemotaxis, modified Boyden chemotaxis chamber assay; assay type: cell-based; settings: for migration of HCECs vs buffer control: 120-146QH at 10^−4, 10^−6, 10^−8, 10^−10 M, 120-146QR at 10^−6, 10^−8 M, HB-EGF 50 ng/ml, rCAP37 250 ng/ml, 3 hours at 37° C; for migration compared with the whole CAP37 protein: 120-146QH at 10^−6 M and 10^−8M
Description: The effect of buffer control (0.1% BSA in Gey's buffer), heparin binding-epidermal growth factor (HB-EGF, 50 ng/ml), recombinant CAP37 (rCAP37, 250 ng/ml), 120-146QH (10^−12M, 10^−10 M, 10^−8 M, 10^−6M, and 10^−4M,) and 120-146QR (10^−10M, 10^−8M, 10^−6M, and 10^−4M) on HCEC chemotaxis was determined by the modified Boyden chemotaxis chamber method. HCEC chemotaxis was measured in response to HB-EGF, rCAP37, and peptides 120-146QH (SEQ ID NO:29) and 120-146QR (SEQ ID NO:28) after incubation for 3 hours at 37° C. Chemotaxis is expressed as a percent migration. The buffer control (no chemoattractant) is arbitrarily assigned the value of 100% migration. Data are expressed as means±SEM and are calculated from 6 observations for each test point. **P<0.01 by Wilcoxon signed-rank test as compared to controls.
Chemotaxis assays were performed using the modified Boyden chemotaxis chamber assay. Peptide 120-146QH was used at 10^−4 M, 10^−6 M, 10^−8 M, 10^−10 M, and 10^−12 M, and peptide 120-146QR was used at 10^−4 M, 10^−6M, 10^−8M, and 10^−10 M.

in vivo = settings: rat, iv, 20 mg/kg
Description: The purpose of this example was to assess the pharmacokinetics, distribution, and excretion of ^14C-BCC03-5RMP (SEQ ID NO:23) following a single intravenous administration to male rats. Pharmacokinetic, excretion, and distribution profiles of ^14C-BCC03-5RMP-derived radioactivity were examined in male Sprague Dawley rats following a single intravenous administration of ^14C-BCC03-5RMP (20 mg/kg; 125 μCi/kg). ^14C-BCC03-5RMP was formulated in 5% (v:v) dextrose in water, pH 5.5 and was administered at a dose volume of 5 mL/kg. For assessment of pharmacokinetics of total radioactivity (Group 1), blood was collected at 0.25, 0.5, 1, 2, 4, 8, 24, 48, and 72 hours postdose. For assessment of excretion profiles, urine was collected from 0-8 and 8-24 hours postdose, and at 24-hour intervals through 168 hours postdose. Feces was collected at 24-hour intervals through 168 hours postdose. For assessment of distribution profiles, one animal/time point was sacrificed at 0.25, 1, 4, 24, and 72 hours postdose, and the carcasses were prepared for quantitative whole-body autoradiography (QWBA). Concentrations of radioactivity in whole blood, plasma, urine, feces (after oxidation), cage rinse, cage wash, and carcass were determined by liquid scintillation counting (LSC). Tissue concentrations were calculated by interpolation from each standard curve using MCID™ analysis software (InterFocus Imaging Ltd Corp., UK). Pharmacokinetic parameters for total radioactivity in blood and plasma were calculated using WinNonlin Professional Edition (version 5.2, Pharsight Corporation, St. Louis, Mo.).

[2] = tested on: Acinetobacter baumannii ATCC® BAA-747™; experiment: In vitro bactericidal assay (CFU remaining, log reduction); assay type: cell-based; settings: 60 minutes, peptides up to 25 μM, gentamicin 4 μg/ml
Description: (§1) The three peptide compounds BCC01-5RMP (SEQ ID NO:21), BCC02-5RMP (SEQ ID NO:22), and BCC03-5RMP (SEQ ID NO:23) were assayed for in vitro bactericidal activity against Pseudomonas aeruginosa, Escherichia coli, Salmonella typhimurium, and Acinetobacter baumannii. The starting inoculum for all experiments was 1×10^6 colony forming units (CFU)/ml. The CFU remaining at the end of 60 to 180 minute incubation was determined, and the data plotted as a log reduction in CFU/ml.
(§2) For FIGS. 10-13, in vitro bactericidal assays were performed using a starting inoculum of 1×10^6 CFU/ml of the bacterial suspension. The CFU remaining at the end of the 60-180 minute incubation was determined, and the data was plotted as log reduction in CFU/ml.
(§3) In particular, each of the test peptides (CAP37 peptides 120-146WR, 120-146WH, and 95-122 (SEQ ID NOs: 30, 31, and 26, respectively)) was used at 25, 12.5, 6.25, and 3.12 μM. Gentamicin was used at 4 μg/ml. 1×10^6/ml Acinetobacter baumannii ATCC® BAA-747″ or Pseudomonas aeruginosa ATCC® 27853™ (American Type Culture Collection, Manassas, Va.) were incubated with the peptides, negative buffer control (tryptone saline), and positive control gentamicin at pH 5.5 or 7.2. A 60 minute incubation was used for Acinetobacter baumannii ATCC® BAA747™, while a 180 minute incubation was used for Pseudomonas aeruginosa ATCC® 27853™. 50 μl aliquots were plated out on agar plates and incubated overnight. Colony forming units were counted after overnight incubation and CFU/ml calculated.

[3] = tested on: Pseudomonas aeruginosa ATCC® 27853™; assay type: cell-based; settings: gentamicin 4 μg/ml
Description: as §1, with “The starting inoculum for all experiments was 1×10^6 colony forming units (CFU)/ml.” left out
Tables 4-6 show the results of various peptides and peptide compounds against P. aeruginosa and E. coli strains. Tables 4 and 5 show the results of an investigation of the effects of peptide or peptide compounds BCC03-5RMP (SEQ ID NO:23), BCC03-MP (SEQ ID NO:24) and BCC03-5R (SEQ ID NO:20) against P. aeruginosa ATCC® strain 27853™ and E. coli ATCC® strain 25922™ (American Type Culture Collection, Manassas, Va.). […] Table 6 compares the activity of several other compounds, including the “5R” versions of BCC01, i.e., SEQ ID NO:18 (which comprises SEQ ID NO:1 with five additional arginines), the “5R” version of BCC02 (i.e., SEQ ID NO:19, which comprises SEQ ID NO:2 with five additional arginines), and BCC03-5RMP (SEQ ID NO:23), and BCC03-MP (SEQ ID NO:24, i.e., without the five additional R residues). The data generally indicate the superiority of BCC03-5RMP (SEQ ID NO:23) against E. coli, and the superiority of the 5R or 5RMP versions of the peptide over the “AEEA only” peptide against P. aeruginosa.
as §2, §3
For FIG. 14, 1×10^6/ml Pseudomonas aeruginosa ATCC® 27853™ were incubated with each of the test peptides (CAP37 peptides 120-146WR, 120-146WH, 120-146QR, 120-146QH, 120-146QR-5RMP, and 120-146QH-5RMP (SEQ ID NOs: 30, 31, 28, 29, 32, and 33, respectively)) at 150, 75, and 37.5 μg/ml, or negative buffer control (tryptone saline), for 180 minutes at pH 5.5. 50 μl aliquots were plated out on agar plates and incubated overnight. Colony forming units were counted after overnight incubation and CFU/ml calculated.

GTRCQVAGWGSQHSGGRLSRFPRFVNV [Peptide 120-146QH]
migration of HCECs vs buffer control [1]: significantly increase migration
migration compared with the whole CAP37 protein [1]: comparable to the migration obtained with the whole CAP37 protein

GTRCQVAGWGSQRSGGRLSRFPRFVNV [Peptide 120-146QR]
migration of HCECs vs buffer control [1]: significantly increase migration
migration compared with the whole CAP37 protein [1]: less than the migration obtained with the whole protein

CC[C@H](C)[C@H](NC(=O)[C@H](CC(C)C)NC(=O)[C@H](C)NC(=O)CNC(=O)CNC(=O)[C@H](CS)NC(=O)[C@H](Cc1ccccc1)NC(=O)[C@H](Cc1c[nH]cn1)NC(=O)[C@H](CCCNC(=N)N)NC(=O)CNC(=O)[C@H](CCC(N)=O)NC(=O)[C@H](CC(N)=O)NC(=O)[C@H](CCCNC(=N)N)NC(=O)[C@H](CCCNC(=N)N)NC(=O)[C@H](CCCNC(=N)N)NC(=O)[C@H](CCCNC(=N)N)NC(=O)COCCOCCNC(=O)COCCOCCN)C(=O)N[C@@H](Cc1c[nH]cn1)C(=O)N[C@@H](C)C(=O)N[C@@H](CCCNC(=N)N)C(=O)N[C@@H](Cc1ccccc1)C(=O)N[C@H](C(=O)N[C@@H](CCSC)C(=O)N[C@H](C(=O)N[C@@H](C)C(=O)N[C@@H](C)C(=O)N[C@@H](CO)C(=O)N[C@@H](CO)C(=O)N[C@@H](Cc1ccccc1)C(=O)N[C@@H](CCC(N)=O)C(=O)N[C@@H](CCCNC(=N)N)C(=O)O)[C@@H](C)O)C(C)C [^14C-BCC03-5RMP] (H-[AEEA][AEEA]RRRRNQGRHFCGGALIHARFVMTAASSFQR-OH; N-terminus and C-terminus assumed)
blood plasma ratio (in vivo; male, Sprague Dawley, total radioactivity): 0.689 to 3.11
C0, Radio-equivalents in blood (in vivo): 38500 ± 2160 ng eq/g
C0, Radio-equivalents in plasma (in vivo): 51800 ± 4160 ng eq/g
Clearance of radioactivity, plasma relative to blood (in vivo): approximately 2 fold
blood:brain barrier passage of radioactivity (in vivo): crossed the blood:brain barrier
blood:testis barrier passage of radioactivity (in vivo): crossed the blood:testis barrier
exposure (AUC0-∞), blood relative to plasma (in vivo): approximately 2 fold
tissue:plasma concentration ratios, majority of tissues (in vivo): greater than one
tissue:plasma concentration ratios, renal, adrenal, pancreatic, and pituitary tissues (in vivo): up to 103
volume of distribution of total radioactivity, blood relative to plasma (in vivo): approximately 1.6 fold

gentamicin [reference compound]
bactericidal activity against Acinetobacter baumannii ([2]; pH 5.5): unable to kill the bacteria
bactericidal activity against Acinetobacter baumannii ([2]; pH 7.2): active against the bacteria
activity against P. aeruginosa ([3]; 120-146WR at 25 μM): highly active
reduction of CFU/ml ([3]; pH 5.5, 180 minutes, highest concentrations of peptides (25 μM)): 2 logs

— US9603896B2, “Peptide compounds and methods of production and use thereof” (priority 2012, dated 2017)
